From US10456365B2, “Methods and formulations for supporting and promoting bone health” (Primus Pharmaceuticals, Inc., priority 2016, dated 2019) come the findings set out here.

What all share (type): cell-based, mouse (C57BL/6)
Assay [1] relates to differentiation of bone marrow cells to adipocytes. Kind of assay: Adipogenesis in bone marrow cell culture. As for the experimental part:
C57BL/6 cells were prepared as 1×10^6/ml per well. These cells were cultured using 12-well plates in DMEM containing 10% FBS, 1% penicillin-steptomycin in the presence or absence of dexamethasone (1 μM/ml) and 3-isobutyl-q-methylxanthine (0.5 mM/ml) with either vehicle or β-Caryophyllene (0.1-100 μM). Medium was replaced containing insulin (10 μg/ml) without dexamethasone and 3-isobutyl-q-methylxanthine, with either the presence or absence of β-Caryophyllene (0.1-100 μM) for four days in CO2 incubator (37° C.). In other experiments, the cells were cultured without β-Caryophyllene for an additional four days. After culture, the adipocytes were stained and counted.
Bone marrow cells (1×10^6 cells/well/ml in 12-well plates) were cultured for 3 days in DMEM containing 10% FBS, 1% penicillin-streptomycin (P/S; 10,000 U/L) in the presence or absence of the differentiation medium (DM) [dexamethasone (1 μM/ml of medium) and 3-isobutyl-1-methylxanthine (IBMX; 0.5 mM/ml of medium)] with either vehicle or β-caryophyllene (0.1-100 μM). […] After culture, the medium was removed, and adipocytes were stained with Oil Red O. Adipocytes were counted by light microscopy. For quantification, the dye was extracted with 0.2 ml of isopropanol for 1 minute, and the absorbance (490 nm) was read using a Spectra Count microplate photometer.

The subject of assay [2] is osteoblastic mineralization. Kind of assay: Mineralization in bone marrow culture. The protocol: C57BL/6 cells were prepared as 1×10^6/ml per well in 12-well plates. Cells were cultured in either the presence or absence of DMEM with mineralization medium containing ascorbic acid (100 μg/ml) and 4 mM β-glycerophosphate in DMEM with 10% FBS and 1% penicillin-steptomycin. […] After culture, the cells were washed and stained. After elution with 10% cetylpyridinium chloride solution, the absorbance at 570 nm on a microtiter plate reader.

Assay [3] relates to osteoclastogenesis. Kind of assay: Osteoclastogenesis in bone marrow cell culture. The protocol:
C57BL/6 cells were prepared as 2×10^5/ml per well in 24-well plates. Cells were cultured in DMEM with 10% FBS and 1% penicillin-steptomycin in water-saturated atmosphere containing 5% CO2 and 95% air at 37° C. Cells were cultured with or without Tumor necrosis factor-α (5 ng/ml) for 3 days in the presence or absence of β-Caryophyllene (0.1-100 μM). Medium was replaced and cultures were maintained for an additional 4 days. In other experiments, the cells were cultured for 3 days and then placed in medium without β-Caryophyllene for an additional 4 days. Cells were stained with a marker enzyme of osteoclasts and washed with phosphate buffered sale solution and foxed with 10% neutralized formalin-phosphate for 10 minutes. The cells were stained with TRACP staining and incubated for 90 minutes. TRACP—positive cells containing three or more nuclei were counted as osteoclast-like cells.

In the case of `C=C1CC/C=C(\C)CC[C@@H]2[C@@H]1CC2(C)C` [β-Caryophyllene], the “differentiation of bone marrow cells to adipocytes” value in assay [1] (0.1-100 μM, 7 days, differentiation medium with or without insulin (FIG. 1)) is recorded as “suppressed differentiation of from bone marrow cells to adipocytes”; in assay [1] (C57BL/6 cells cultured for 7 days with or without β-Caryophyllene), “suppressed differentiation of bone marrow cells to adipocytes”. For the same compound, the osteoblastic mineralization entry in assay [2] (18 days, mineralization medium) was “stimulated osteoblastic mineralization”; in assay [2] (β-Caryophyllene for 7 days, then medium without it for additional 11 days), “Stimulation was also seen”. Moreover, the osteoclastogenesis entry in assay [3] (7 days, medium containing Tumor necrosis factor-α) was “suppressed osteoclastogenesis”; in assay [3] (cultured in Tumor necrosis factor-α with β-Caryophyllene, then without β-Caryophyllene for additional 4 days) it was “also exhibited suppression of osteoclastogenesis”.
